This is an account of results in patent US20130296311A1, “INHIBITORS OF HCV NS5A” (PRESIDIO PHARMACEUTICALS, INC., priority 2010, published 2013).

Where only a bound is given, the exact number is not on record here.

The first assay concerns HCV 1b_Huh-Luc/Neo-ET cell line persistently expressing a bicistronic genotype 1b replicon in Huh 7 cells. The experiment in a line: HCV replicon assay (luciferase readout, 72 h). Type of assay: cell-based, HCV genotype 1b. The conditions noted are these: Hepatitis C virus, Huh-7, 72 h, read-out: Inhibition of HCV genotype 1b. Put shortly:
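EC50 values come from a four-parameter fit of luciferase signal as % of untreated control, repeated across several determinations. The signal is from the HCV 1b_Huh-Luc/Neo-ET replicon line, dosed in triplicate one day post-plating and incubated 72 h before Bright-Glo readout.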
In general terms: A replicon is a self-replicating genome or part of one, used to study replication in cells.
For the compound `O=C(N[C@@H](C(=O)N1CCC[C@H]1c1ncc(C#Cc2ccc(-c3ccc(-c4cnc([C@@H]5CCCN5C(=O)[C@H](NC(=O)C5CC5)c5ccccc5)[nH]4)cc3)cc2)[nH]1)c1ccccc1)C1CC1` [Compound 760], the EC50 was below 1 nM.
Same read-out and setting: for `COC(=O)N[C@@H](C(=O)N1CCC[C@H]1c1ncc(-c2ccc(C#Cc3ccc(-c4cnc([C@@H]5CCCN5C(=O)c5cccnc5)[nH]4)cc3)cc2)[nH]1)c1ccccc1` [Compound 183] the value was below 1 nM; for `O=C(N[C@@H](C(=O)N1CCC[C@H]1c1nc(-c2ccc3cc(C#Cc4cnc([C@@H]5CCCN5C(=O)[C@H](NC(=O)C5CC5)c5ccccc5)[nH]4)ccc3c2)c[nH]1)c1ccccc1)C1CC1` [Compound 804], below 1 nM.
As to `CC[C@H](NC(=O)OC)C(=O)N1CCC[C@H]1c1ncc(-c2ccc(C#Cc3ccc(-c4cnc([C@@H]5CCCN5C(=O)[C@H](CC)NC(=O)OC)[nH]4)cc3)cc2)[nH]1` [Compound 960], the EC50 is below 1 nM.
The same measure, in the same setting: the same measure for `O=C(N[C@@H](C(=O)N1CCC[C@H]1c1nc(-c2ccc3cc(C#Cc4cnc([C@@H]5CCCN5C(=O)[C@H](NC(=O)N5CC[C@H](O)C5)c5ccccc5)[nH]4)ccc3c2)c[nH]1)c1ccccc1)N1CC[C@H](O)C1` [Compound 806]: 1 to 9.9 nM; for `COC[C@@H]1CCCN1C(=O)N[C@@H](C(=O)N1CCC[C@H]1c1ncc(-c2ccc(C#Cc3ccc(-c4cnc([C@@H]5CCCN5C(=O)[C@H](NC(=O)OC)c5ccccc5)[nH]4)cc3)cc2)[nH]1)c1ccccc1` [Compound 260]: below 1 nM; for `COC(=O)N[C@H](C(=O)N1CCC[C@H]1c1ncc(-c2ccc(C#Cc3ccc4nc([C@@H]5CCCN5C(=O)[C@@H](NC(=O)OC)C5CC5)[nH]c4c3)cc2)[nH]1)C1CC1` [Compound 1029]: below 1 nM.
The same measure, in the same setting: the same measure for `CN1CCN(C(=O)N[C@@H](C(=O)N2CCC[C@H]2c2ncc(-c3ccc(C#Cc4ccc(-c5cnc([C@@H]6CCCN6C(=O)[C@H](NC(=O)N6CCN(C)CC6)c6ccccc6)[nH]5)cc4)cc3)[nH]2)c2ccccc2)CC1` [Compound 159]: below 1 nM.
On the same count and under the same terms, for `COC(=O)N[C@@H](C(=O)N1CCC[C@H]1c1ncc(-c2ccc(C#Cc3ccc(-c4cnc([C@@H]5CCCN5C(=O)[C@H](C(C)C)N5CCOC5=O)[nH]4)cc3)cc2)[nH]1)c1ccccc1` [Compound 1005] the value was below 1 nM; for `CCN(CC)[C@@H](C(=O)N1CCC[C@H]1c1ncc(-c2ccc(C#Cc3ccc(-c4cnc([C@@H]5CCCN5C(=O)[C@H](NS(C)(=O)=O)c5ccccc5)[nH]4)cc3)cc2)[nH]1)c1ccccc1` [Compound 229], below 1 nM.
With `COC(=O)NC(C(=O)N1CCC[C@H]1c1ncc(-c2ccc(C#Cc3ccc(-c4cnc([C@@H]5CCCN5C(=O)[C@H](NC(=O)OC)[C@H](C)O)[nH]4)cc3)cc2)[nH]1)[C@H](C)O` (some centres unmarked) [Compound 978], the EC50 was in the range of 10 to 999 nM.
As for `COC(=O)N[C@H](C(=O)N1CCC[C@H]1c1ncc(C#Cc2cccc3c(C#Cc4cnc([C@@H]5CCCN5C(=O)[C@@H](NC(=O)OC)C(C)C)[nH]4)cccc23)[nH]1)C(C)C` [Compound 1113], the EC50 was below 1 nM.
Still for that read-out and setting: for `CS(=O)(=O)N[C@@H](C(=O)N1CCC[C@H]1c1ncc(-c2ccc(C#Cc3ccc(-c4cnc([C@@H]5CCCN5C(=O)[C@@H](c5ccccc5)N5CCCCC5)[nH]4)cc3)cc2)[nH]1)c1ccccc1` [Compound 231] the value was below 1 nM; for `COC(=O)N[C@@H](C(=O)N[C@H](c1ncc(-c2ccc(C#Cc3ccc(-c4cnc([C@@H]5CCCN5C(=O)[C@H](NC(=O)OC)c5ccccc5)[nH]4)cc3)cc2)[nH]1)C(C)C)c1ccccc1` [Compound 282], below 1 nM; for `COC(=O)N[C@@H](C(=O)N1CCC[C@H]1c1ncc(C#Cc2ccc(C#Cc3cnc([C@@H]4CCCN4C(=O)[C@@H](c4ccccc4)N4CCCCC4)[nH]3)cc2)[nH]1)c1ccccc1` [Compound 312], below 1 nM.
On the same count and under the same terms, for `C[C@@H](NC(=O)[C@@H]1CCCN1C(=O)[C@H](NC(=O)OC(C)(C)C)c1ccccc1)c1ccc(C#Cc2ccc(-c3cnc([C@@H]4CCCN4C(=O)[C@H](NC(=O)OC(C)(C)C)c4ccccc4)[nH]3)cc2)cc1` [Compound 167] the value was 1 to 9.9 nM; for `COC(=O)NC(C(=O)N[C@@H](C)c1ncc(-c2ccc(C#Cc3ccc(-c4cnc([C@@H]5CCCN5C(=O)[C@H](NC(=O)OC)c5ccccc5)[nH]4)cc3)cc2)[nH]1)c1ccccc1` (some centres unmarked) [Compound 279], below 1 nM.
On the same count and under the same terms, the same measure for `COC(=O)N[C@H](C(=O)N[C@@H](C)c1ncc(-c2ccc(C#Cc3ccc4nc([C@@H]5CCCN5C(=O)[C@@H](NC(=O)OC)C(C)C)[nH]c4c3)cc2)[nH]1)C(C)C` [Compound 869]: below 1 nM.
Take `COC(=O)N[C@H](C(=O)N1CSC[C@H]1c1ncc(-c2ccc(C#Cc3ccc4nc([C@@H]5CCCN5C(=O)[C@@H](NC(=O)OC)C(C)C)[nH]c4c3)cc2)[nH]1)C(C)C` [Compound 1026]: the EC50 was below 1 nM.
On the same count and under the same terms, for `COC(=O)N[C@@H](C(=O)N1CCC[C@H]1c1ncc(-c2ccc(C#Cc3ccc(-c4cnc([C@@H]5CCCN5C(=O)C5(c6ccccc6)CC5)[nH]4)cc3)cc2)[nH]1)c1ccccc1` [Compound 257] the value was below 1 nM.
Consider `C[C@H]1OC(=O)N[C@@H]1C(=O)N1CCC[C@H]1c1ncc(-c2ccc(C#Cc3ccc(-c4cnc([C@@H]5CCCN5C(=O)[C@H]5NC(=O)O[C@@H]5C)[nH]4)cc3)cc2)[nH]1` [Compound 979], for which the EC50 lay within 10 to 999 nM.
As to `CC(C)(C)OC(=O)N[C@@H](C(=O)N1CCC[C@H]1c1cc(-c2ccc(C#Cc3ccc(-c4cnc([C@@H]5CCCN5C(=O)[C@H](NC(=O)OC(C)(C)C)c5ccccc5)[nH]4)cc3)cc2)n[nH]1)c1ccccc1` [Compound 210], the EC50 is below 1 nM.
Regarding `CC(C)[C@@H](C(=O)N1CCC[C@H]1c1ncc(-c2ccc(C#Cc3ccc(-c4cnc([C@@H]5CCCN5C(=O)[C@H](C(C)C)N5CCOC5=O)[nH]4)cc3)cc2)[nH]1)N1CCOC1=O` [Compound 1006], the EC50 was 10 to 999 nM.
Consider `COC(=O)N[C@H](C(=O)N1CCC[C@H]1c1nc2c([nH]1)-c1ccc(C#Cc3ccc(-c4cnc([C@@H]5CCCN5C(=O)[C@@H](NC(=O)OC)C5CCOCC5)[nH]4)cc3)cc1CCC2)C(C)C` [Compound 1097], for which the EC50 is below 1 nM.
Same read-out and setting: the same measure for `COC(=O)N[C@@H](Cc1cnc[nH]1)C(=O)N1CCC[C@H]1c1ncc(-c2ccc(C#Cc3ccc4nc([C@@H]5CCCN5C(=O)[C@H](Cc5cnc[nH]5)NC(=O)OC)[nH]c4c3)cc2)[nH]1` [Compound 1048]: 1 to 9.9 nM; for `COC(=O)N[C@H](C(=O)N1CCC[C@H]1c1ncc(-c2ccc(C#Cc3ccc(-c4cnc([C@H](C)NC(=O)[C@@H](c5ccccc5)N(C)C)[nH]4)cc3)cc2)[nH]1)C(C)C` [Compound 983]: below 1 nM.

Staying with this assay, now noted: Hepatitis C virus, Huh-7, read-out: Inhibition of HCV genotype 1b.
Regarding `COC(=O)N[C@H](C(=O)N1CCC[C@H]1c1ncc(-c2ccc3cc(C#Cc4[nH]c([C@@H]5CCCN5C(=O)[C@@H](NC(=O)OC)C(C)C)nc4C4CC4)ccc3c2)[nH]1)C(C)C` [Compound 1300], the EC50 is below 1 nM.
On the same count and under the same terms, the same measure for `COC(=O)N[C@H](C(=O)N1CCC[C@H]1c1ncc(-c2ccc(C#Cc3ccc(-c4cnc([C@@H]5CCCN5C(=O)[C@@H](NC(=O)OC)C(C)C)[nH]4)cc3C#N)cc2)[nH]1)C(C)C` [Compound 1202]: below 1 nM; for `COC(=O)N[C@H](C(=O)N1CCC[C@H]1c1nc2ccc3cc(C#Cc4ccc5nc([C@@H]6CCCN6C(=O)[C@H](NC(=O)OC)c6ccccc6)[nH]c5c4)ccc3c2[nH]1)C(C)C` [Compound 1275]: below 1 nM.
